{"source": "patent US5561149A", "about": "“Use of certain imidazol carbazols in treating stress-related manic-depressive disorders” (priority 1986, dated 1996)", "key": {"[1]": {"system": "male OF-1 mice (social interactions and feeding)", "experiment": "Competitive feeding, Study C", "assay_type": "in vivo, mouse", "protocol": "In this test 8 pairs of male OF-1 mice deprived of food for 6 hours are forced to compete over 6 minutes for a single food pellet. […]"}, "[2]": {"system": "mice (approach-oriented behaviour)", "experiment": "Approach-oriented behaviour in mice in stress-situations", "assay_type": "in vivo, mouse", "conditions": "for approach-oriented social behaviours: food deprived mice under white light; for effect on promoting social interaction under stress related conditions: mouse, in vivo", "protocol": "Trials have been carried out on the effects of the compounds of the invention on approach-oriented behaviour in mice. The compounds increase approach-oriented behaviour in stress-situations normally inhibitory to social responses. Thus situations involving unfamiliar surroundings, contact with foreign aggressive opponents, competition for food, were created under reversed lighting conditions whereby observations were performed during the darkphase. Under these conditions, untreated rodents exihibit high levels of flight, particularly depressive ambivalence and escape behaviour, but low levels of social behaviour involving approach activity."}, "[3]": {"system": "mice (stretched attend postures)", "conditions": "H. P. Kasermann, Psychopharmacology 1986, 89, 31-37; cited from earlier work"}, "[4]": {"system": "intruder mice (social behaviour)", "experiment": "Intruder test, Study A", "assay_type": "in vivo, mouse", "conditions": "1 mg/kg p.o., 1 hour before the encounter", "protocol": "A foreign male mouse (intruder), placed for 6 minutes, into the cage of an isolated male is attacked and responds with defensive escape patterns collectively known as \"flight\". Flight and associated defensive activities over-ride the intruder's tendency to approach the attacker so that much of the behaviour includes social forms of ambivalence.\nIntruders receiving oral doses of benzodiazepines show less of these defensive activities and more approach-oriented behaviour (A. K. Dixon Triangle 1982, 21, 95-105; M. Krisak, Br. J. Pharmacol 1975, 55, 141-150), e.g. investigation, aggression and sexual activity.\nThe compounds of the invention are administered 1 hour before the encounter per-orally at from about 0.1 to about 10 mg/kg. Groups of 8 mice pairs are used. The frequency and duration of social and non-social behaviour of the mice were recorded using ethological techniques."}, "[5]": {"system": "intruder mice (approach-oriented social activities)", "experiment": "Intruder test, Study B (large cage)", "assay_type": "in vivo, mouse", "conditions": "for escape behaviour: single compounds: 1 microgram/kg, in general about 0.01 to about 100 microgram/kg i.p.", "protocol": "Study A was modified using a large cage (59×38.5×20 cm) which allowed greater freedom of movement so that elements of defense could be separated more clearly from the approach-oriented social activities. The compounds of the invention were given i.p. at doses from about 0.01 to about 100 microgram/kg 45 minutes before the encounter.\nIndruders received the drug. […] In this test at a dose of 1 microgram/kg compound E promoted 8 elements of approach oriented social activities by about 40 per cent. […] Compound H at the same dose promoted 3 elements of approach-oriented social activities by about 40 per cent."}, "[6]": {"system": "mice (stretched attend postures)", "experiment": "Stretched Attend Postures (SAP) (No conflict)", "assay_type": "in vivo, mouse", "conditions": "doses higher than 0.1 mg/kg", "protocol": "Mice placed upon an unfamiliar elevated platform in a novel environment display characteristic stretched body postures called SAP's which signify amibivalence.\nThe compounds of the invention administered p.o. at a dose of from about 0.1 to about 10 mg/kg. 2 hours before the test reduce the duration of SAP when placed on the platform for 2 minutes under conditions where no other mice are present."}, "[7]": {"system": "plasma corticosterone", "experiment": "Corticosterone levels (Endocrinological profile)", "assay_type": "in vivo, mouse", "conditions": "reduction at high, increase of basal levels at low doses"}, "[8]": {"experiment": "Bioavailability and pharmacokinetic profile after nasal / oral administration", "assay_type": "in vivo, mammals including rhesus monkeys and humans", "conditions": "plasma; ca. 5 to 10 minutes following nasal administration", "protocol": "The bioavailability and pharmacokinetic profile of the compounds of the invention may be determined in conventional manner, e.g. in mammals including rhesus monkeys and humans. The concentrations of the compounds of the invention in the blood plasma after administration of from about 0.01 to about 10 mg/kg to each nostril, e.g. 7.5 mg in the case of compound E, locally to the nasal mucous membrane, e.g. as a spray, may be determined in conventional manner by e.g. radioimmunoassay or HPLC methods. The compounds of the invention are rapidly absorbed, e.g. over about 10 minutes."}, "[9]": {"experiment": "26 week toxicity study in the dog", "conditions": "in vivo, po, 26 weeks, read-out: no toxic effect bowel (dose), dog", "source_text": "(§1) Toxicity and Tolerability studies may be effected in conventional manner with the compounds of the invention to determine the upper dosage.\n(§2) Toxicity studies may be effected for example in the rat and the dog over for example 26 weeks."}, "[10]": {"experiment": "26 week toxicity study in the rat", "conditions": "in vivo, po, 26 weeks, read-out: no toxic effect (dose), rat", "source_text": "as §1, §2"}, "[11]": {"system": "healthy human volunteers", "experiment": "Tolerability in healthy human volunteers", "assay_type": "in vivo", "conditions": "single doses", "source_text": "as §1"}, "[12]": {"system": "5-HT3 receptors", "conditions": "rabbit vagus; P. Donatsch et al., Br.j. Pharmacol. 1984, 81,348; cited from earlier work"}, "[13]": {"system": "5-HT3 receptors", "conditions": "rabbit heart; P. Donatsch et al., Br.j. Pharmacol. 1984, 81,348; cited from earlier work"}, "[14]": {"system": "5-HT3 receptors", "conditions": "guinea pig ileum; P. Donatsch et al., Br.j. Pharmacol. 1984, 81,348; cited from earlier work"}, "[15]": {"experiment": "Bioavailability of co-administered peptide (salmon calcitonin) on nasal administration", "assay_type": "in vivo", "conditions": "rhesus monkey", "protocol": "Additionally, the compounds of the invention when administered, e.g. at a dose of from 0.01 to 10 mg/kg with a therapeutically effective dosage of another compound, e.g. a peptide, such as salmon calcitonin increases the absorption thereof."}, "[16]": {"conditions": "0.1 mg/kg p.o., 2 hours before the encounter"}}, "note": "Read-outs that look alike come from different tables or passages of the source."}
{"compound": "CC(NC(C)(C)C)C(=O)c1cccc(Cl)c1", "note": "(stereo not shown) [bupropion]", "values": [{"measurement": "increase in mean frequency of social interactions", "setting": "[1]; 2.5 mg/kg, competitive feeding experiment study c)", "result": 179, "unit": "per cent"}, {"measurement": "approach-oriented social behaviours", "setting": "[2]", "result": "increase approach-oriented social behaviours"}, {"measurement": "effect on promoting social interaction under stress related conditions", "setting": "[2]", "result": "pronounced effect"}]}
{"compound": "O=C1CC2(CCCC2)CC(=O)N1CCCCN1CCN(c2ncccn2)CC1", "note": "[buspirone]", "values": [{"measurement": "incidence of SAP's", "setting": "[3]", "result": "reduce the incidence of SAP's"}]}
{"compound": "CN1[C@@H]2CC[C@H]1C[C@@H](OC(=O)c1c[nH]c3ccccc13)C2", "note": "[compound E, Indol-3-yl carboxylic acid endo-8-methyl-8-aza-bicyclo-[3.2.1]oct-3-yl ester]", "values": [{"measurement": "frequency of social inter-action", "setting": "[4]; increased from ca 60", "result": "~80"}, {"measurement": "duration of social inter-action", "setting": "[4]; increased from ca 90", "result": "~120", "unit": "s"}, {"measurement": "promotion of 8 elements of approach oriented social activities", "setting": "[5]; 1 microgram/kg i.p., 45 minutes before the encounter, 8 elements", "result": "about 40 per cent"}, {"measurement": "escape behaviour", "setting": "[5]", "result": "reduced escape behaviour"}, {"measurement": "increase in mean frequency of social interactions", "setting": "[1]; 0.01 mg/kg, competitive feeding experiment study c)", "result": 54, "unit": "per cent"}, {"measurement": "increase in duration of feeding", "setting": "[1]; [16]", "result": 55, "unit": "per cent"}, {"measurement": "increase in duration of social interactions relative to controls", "setting": "[1]; [16]", "result": 321, "unit": "per cent"}, {"measurement": "increase in frequency of feeding", "setting": "[1]; [16]", "result": 4, "unit": "per cent"}, {"measurement": "increase in frequency of social interactions relative to controls", "setting": "[1]; [16]", "result": 54, "unit": "%"}, {"measurement": "effect on promoting social interaction under stress related conditions", "setting": "[2]", "result": "pronounced effect"}, {"measurement": "effect on SAP at higher doses", "setting": "[6]", "result": "the effect was less"}, {"measurement": "corticosterone profile compared with diazepam", "setting": "[7]", "result": "analogous to that observed with diazepam"}, {"measurement": "concentration at 10 min", "setting": "[8]", "result": 200, "unit": "ng/mL"}, {"measurement": "NOAEL at 4368 h", "setting": "[9]", "result": "5 to 20", "unit": "mg/kg/day"}, {"measurement": "NOAEL at 4368 h", "setting": "[10]", "result": "16 to 45", "unit": "mg/kg/day"}, {"measurement": "well tolerated single dose without relevant side effects", "setting": "[11]", "result": "up to 150 mg"}, {"measurement": "antagonistic action against 5-HT3 receptors", "setting": "[12]", "result": "antagonistic action"}, {"measurement": "antagonistic action against 5-HT3 receptors", "setting": "[13]", "result": "antagonistic action"}, {"measurement": "antagonistic action against 5-HT3 receptors", "setting": "[14]", "result": "antagonistic action"}]}
{"compound": "Cc1nccn1CC1CCc2c(c3ccccc3n2C)C1=O", "note": "(stereo not shown) [compound H, 1,2,3,9-tetrahydro-9-methyl-3-[(2-methyl-1H-imidazol-1-yl)methyl]-4H-carbazol-4-one]", "values": [{"measurement": "promotion of 3 elements of approach-oriented social activities", "setting": "[5]; 1 microgram/kg i.p., 45 minutes before the encounter, 3 elements", "result": "about 40 per cent"}, {"measurement": "cage exploratory behaviour", "setting": "[5]; 1 microgram/kg i.p., indicative of a stimulant effect", "result": "increase cage exploratory behaviour"}, {"measurement": "escape behaviour", "setting": "[5]", "result": "effect on escape behaviour was less"}]}
{"compound": "CN1C(=O)CN=C(c2ccccc2)c2cc(Cl)ccc21", "note": "[diazepam]", "values": [{"measurement": "ambivalent behaviour", "setting": "[2]; reversed lighting, darkphase, stress-situations", "result": "reduce the ambivalent behaviour"}, {"measurement": "social behaviour / approach-oriented behaviour in stress-situations", "setting": "[2]; reversed lighting, darkphase, stress-situations normally inhibitory to social responses", "result": "can increase social behaviour"}]}
{"compound": "CN(C)CCCN1c2ccccc2CCc2ccccc21", "note": "[impramine]", "values": [{"measurement": "approach-oriented social behaviours", "setting": "[2]", "result": "increase approach-oriented social behaviours"}]}
{"compound": "salmon calcitonin", "values": [{"measurement": "bioavailability of salmon calcitonin (AUC up to 2 hours), with compound E", "setting": "[15]; salmon calcitonin 100 IU + compound E 15 mg, half to each nostril", "result": 1.632, "unit": "m IU/ml/hr/plasma"}, {"measurement": "bioavailability of salmon calcitonin (AUC up to 2 hours), before increase by compound E", "setting": "[15]; salmon calcitonin 100 IU nasal, without compound E", "result": 0.08, "unit": "mIU/ml/hr"}]}
